Assay results from patent US10669235B2, “Indole derivatives and their use as protein kinase inhibitors” (RESPIVERT LIMITED, priority 2016, dated 2020).
Where a name gives a salt, the structure may show the parent alone. Read-outs that look alike come from different tables or passages of the source.

Legend:
[1] = test system: MRC5 cells; assay: Cell viability assay in MRC5 cells (MTT)
[2] = target: T1, PDGFRβ (Homo sapiens (Human), UniProt P09619); assay: PDGFRβ enzyme inhibition (ADP-Glo assay); type: biochemical
[3] = target: T1, PDGFRβ; assay: PDGF-BB induced phosphorylation of PDGFRβ in fibroblasts (MRC5, HTRF); type: cell-based; details: MRC5 cells, PDGFBB stimulation; read-out: PDGFBB-induced PDGFRβ phosphorylation in MRC5 cells (IC50)
[4] = PAMPA permeability assay; type: in vitro ADME; details: pH 7, PAMPA; for Papp at 5 hr, 10 μM: pH 7, 10 μM
[5] = Pharmacokinetic measurements in rats (i.v., i.t., oral); type: in vivo; details: rat; for concentration at 0.1 h: read-out: lung concentration (nM) at time 0.1 h; for concentration at 1.5 h: read-out: lung concentration (nM) at time 1.5 h; for concentration at 6 h: read-out: lung concentration (nM) at time 6 h; for concentration at 24 h: read-out: lung concentration (nM) at time 24 h
[6] = mean, n = 2 (nintedanib n = 34)
[7] = i.t. dose 0.1 (nintedanib 0.42)
[8] = i.v. dose 0.1 (nintedanib 0.42)

T1 sequence (P09619 33-1106): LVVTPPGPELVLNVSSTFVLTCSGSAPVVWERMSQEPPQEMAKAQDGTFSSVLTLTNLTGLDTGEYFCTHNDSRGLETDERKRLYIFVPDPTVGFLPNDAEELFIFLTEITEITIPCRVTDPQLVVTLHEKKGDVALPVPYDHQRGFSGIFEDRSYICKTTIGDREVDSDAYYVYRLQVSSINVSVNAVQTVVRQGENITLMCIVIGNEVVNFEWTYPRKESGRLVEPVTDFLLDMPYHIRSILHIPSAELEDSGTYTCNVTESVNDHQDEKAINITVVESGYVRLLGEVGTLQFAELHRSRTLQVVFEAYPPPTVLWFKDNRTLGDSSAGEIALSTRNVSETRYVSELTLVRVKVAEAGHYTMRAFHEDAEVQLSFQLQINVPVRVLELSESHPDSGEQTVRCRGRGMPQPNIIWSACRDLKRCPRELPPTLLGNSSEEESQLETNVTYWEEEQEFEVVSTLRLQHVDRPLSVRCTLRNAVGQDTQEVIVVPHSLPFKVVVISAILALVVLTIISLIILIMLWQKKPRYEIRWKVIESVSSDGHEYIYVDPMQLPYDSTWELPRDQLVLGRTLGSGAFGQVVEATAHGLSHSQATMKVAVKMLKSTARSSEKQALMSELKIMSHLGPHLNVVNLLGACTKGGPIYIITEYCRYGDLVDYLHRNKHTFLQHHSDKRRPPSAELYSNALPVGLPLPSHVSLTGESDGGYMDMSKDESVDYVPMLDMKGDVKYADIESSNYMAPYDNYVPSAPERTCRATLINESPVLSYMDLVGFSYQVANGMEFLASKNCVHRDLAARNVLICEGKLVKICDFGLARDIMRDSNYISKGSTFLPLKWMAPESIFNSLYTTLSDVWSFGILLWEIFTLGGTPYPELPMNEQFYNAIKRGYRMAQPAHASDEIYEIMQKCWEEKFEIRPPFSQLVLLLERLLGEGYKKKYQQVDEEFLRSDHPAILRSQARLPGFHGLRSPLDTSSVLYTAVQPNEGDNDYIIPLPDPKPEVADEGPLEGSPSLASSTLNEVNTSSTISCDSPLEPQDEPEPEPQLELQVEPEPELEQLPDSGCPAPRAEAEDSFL

For `COC(=O)c1cc2c(cc1C)/C(=C(/Nc1ccc(C(=O)N3CCC(C(N)=O)(N4CCCCC4)CC3)cc1)c1ccccc1)C(=O)N2` [Example 47, (Z)-Methyl 3-(((4-(4′-carbamoyl-[1,4′-bipiperidine]-1′-carbonyl)phenyl)amino)(phenyl)methylene)-5-methyl-2-oxoindoline-6-carboxylate], the “Cell viability at 100 nM (%)” value [1] was 143.1%, the “Cell viability at 300 nM (%)” value [1] was 123% and the “Cell viability at 1000 nM (%)” value [1] was 58.5%. It also gave a Ki [2, 6] of 98.9 nM and an IC50 [3] of 3.67 nM.

For `COC(=O)c1cc2c(cc1C)/C(=C(/Nc1ccc(C(=O)NCCN3CCC(F)CC3)cc1)c1ccccc1)C(=O)N2` [Example 28, (Z)-Methyl 3-(((4-((2-(4-fluoropiperidin-1-yl)ethyl)carbamoyl)phenyl)amino)(phenyl)methylene)-5-methyl-2-oxoindoline-6-carboxylate, formate], the “Cell viability at 100 nM (%)” value [1] was 149.4%, the “Cell viability at 300 nM (%)” value [1] was 97.6% and the “Cell viability at 1000 nM (%)” value [1] was 83.6%. It also gave a Ki [2] of 20 nM and an IC50 [3] of 51.3 nM.

With `COC(=O)c1cc2c(cc1C)/C(=C(/Nc1ccc(C(=O)N(C)C3CCN(CCO)CC3)cc1)c1ccccc1)C(=O)N2` [Example 41, (Z)-Methyl 3-(((4-((1-(2-hydroxyethyl)piperidin-4-yl)(methyl)carbamoyl)phenyl)amino)(phenyl)methylene)-5-methyl-2-oxoindoline-6-carboxylate, 0.2 formate] the “Cell viability at 100 nM (%)” value [1] was 68.5%, the “Cell viability at 300 nM (%)” value [1] was 56.8% and the “Cell viability at 1000 nM (%)” value [1] was 6.2%. For the same compound, the Ki [2, 6] was 10.2 nM and the IC50 [3] was 7.4 nM.

In the case of `COC(=O)c1cc2c(cc1C)/C(=C(/Nc1ccc(C(=O)NCCN3CCN(C(C)=O)CC3)cc1)c1ccccc1)C(=O)N2` [Example 24, (Z)-Methyl 3-(((4-((2-(4-acetylpiperazin-1-yl)ethyl)carbamoyl)phenyl)amino)(phenyl)methylene)-5-methyl-2-oxoindoline-6-carboxylate], the “Cell viability at 100 nM (%)” value [1] is reported as 125.2%, the “Cell viability at 300 nM (%)” value [1] is reported as 74.4% and the “Cell viability at 1000 nM (%)” value [1] is reported as 45.9%. The Ki [2, 6] was 12.7 nM and the IC50 [3] was 12.3 nM.

For `COC(=O)c1cc2c(cc1C)/C(=C(/Nc1ccc(C(=O)NCCN3CCCN(C)CC3)cc1)c1ccccc1)C(=O)N2` [Example 5, (Z)-Methyl 5-methyl-3-(((4-((2-(4-methyl-1,4-diazepan-1-yl)ethyl)carbamoyl)phenyl)amino) (phenyl)methylene)-2-oxoindoline-6-carboxylate, formate], the recovery at 5 hr, 10 μM [4] was 58.7%, the Papp at 5 hr, 10 μM [4] was 0.00254 ×10⁻⁶ cm/s and the “Cell viability at 100 nM (%)” value [1] was 91.5%. The “Cell viability at 300 nM (%)” value [1] was 81%, the “Cell viability at 1000 nM (%)” value [1] was 84.8% and the “Lung conc i.t./i.v. Ratio at time 0.1 h” value [5] was 7. For the same compound, the “Lung conc i.t./i.v. Ratio at time 1.5 h” value [5] was 12, the “Lung conc i.t./i.v. Ratio at time 6 h” value [5] was 2 and the “Lung conc i.t./i.v. Ratio at time 24 h” value [5] was 7. For the same compound, the “BAL % administered dose at time 0.1 h” value [5, 7] was 13.6%, the “lung/plasma conc ratio at time 0.1 h” value [5, 7] was 371 and the concentration at 0.1 h [5, 7] was 5506 nM. For the same compound, the “BAL % administered dose at time 1.5 h” value [5, 7] was 0.9%, the “lung/plasma conc ratio at time 1.5 h” value [5, 7] was >2285 and the concentration at 1.5 h [5, 7] was 4022 nM. For the same compound, the “BAL % administered dose at time 6 h” value [5, 7] was 0.2%, the “lung/plasma conc ratio at time 6 h” value [5, 7] was >606 and the concentration at 6 h [5, 7] was 1067 nM. For the same compound, the “BAL % administered dose at time 24 h” value [5, 7] was 0.2%, the “lung/plasma conc ratio at time 24 h” value [5, 7] was >951 and the concentration at 24 h [5, 7] was 1674 nM. The “BAL % administered dose at time 0.1 h” value [5, 8] was “BQL”, the “lung/plasma ratio at time 0.1 h” value [5, 8] was 127 and the concentration at 0.1 h [5, 8] was 765 nM. For the same compound, the “BAL % administered dose at time 1.5 h” value [5, 8] was “BQL”, the “lung/plasma ratio at time 1.5 h” value [5, 8] was >188 and the concentration at 1.5 h [5, 8] was 330 nM. For the same compound, the “BAL % administered dose at time 6 h” value [5, 8] was “BQL”, the “lung/plasma ratio at time 6 h” value [5, 8] was >284 and the concentration at 6 h [5, 8] was 499 nM. The “BAL % administered dose at time 24 h” value [5, 8] was “BQL”, the “lung/plasma ratio at time 24 h” value [5, 8] was >140 and the concentration at 24 h [5, 8] was 247 nM. For the same compound, the IC50 [3] was 15 nM.

In the case of `COC(=O)c1cc2c(cc1C)/C(=C(/Nc1ccc(C(=O)NCCN3CCC(F)(F)CC3)cc1)c1ccccc1)C(=O)N2` [Example 23, (Z)-Methyl 3-(((4-((2-(4,4-difluoropiperidin-1-yl)ethyl)carbamoyl)phenyl)amino)(phenyl)methylene)-5-methyl-2-oxoindoline-6-carboxylate], the “Cell viability at 100 nM (%)” value [1] is reported as 90.7%, the “Cell viability at 300 nM (%)” value [1] is reported as 100.5% and the “Cell viability at 1000 nM (%)” value [1] is reported as 62.1%. The Ki [2, 6] was 84.6 nM and the IC50 [3] was 22.6 nM.

In the case of `COC(=O)c1cc2c(cc1C)/C(=C(/Nc1ccc(C(=O)NCCN3CCNC(=O)C3)c(F)c1)c1ccccc1)C(=O)N2` [Example 55, (Z)-Methyl 3-(((3-fluoro-4-((2-(3-oxopiperazin-1-yl)ethyl)carbamoyl)phenyl)amino)(phenyl)methylene)-5-methyl-2-oxoindoline-6-carboxylate], the “Cell viability at 100 nM (%)” value [1] is reported as 79.4%, the “Cell viability at 300 nM (%)” value [1] is reported as 101.5% and the “Cell viability at 1000 nM (%)” value [1] is reported as 101.7%. The Ki [2, 6] was 25.1 nM and the IC50 [3] was 9.13 nM.

For `COC(=O)c1cc2c(cc1C)/C(=C(/Nc1ccc(C(=O)NCCN3CCC(CO)CC3)cc1)c1ccccc1)C(=O)N2` [Example 42, (Z)-Methyl 3-(((4-((2-(4-(hydroxymethyl)piperidin-1-yl)ethyl)carbamoyl)phenyl)amino)(phenyl)methylene)-5-methyl-2-oxoindoline-6-carboxylate, 0.2 formate], the “Cell viability at 100 nM (%)” value [1] was 82.5%, the “Cell viability at 300 nM (%)” value [1] was 83.4% and the “Cell viability at 1000 nM (%)” value [1] was 60.7%. It also gave a Ki [2, 6] of 14.4 nM and an IC50 [3] of 14.9 nM.

For `COC(=O)c1cc2c(cc1C)/C(=C(/Nc1cccc(C(=O)N(C)CCN(C)C)c1)c1ccccc1)C(=O)N2` [Example 16, (Z)-Methyl 3-(((3-((2-(dimethylamino)ethyl)(methyl)carbamoyl)phenyl)amino)(phenyl)methylene)-5-methyl-2-oxoindoline-6-carboxylate], the “Cell viability at 100 nM (%)” value [1] was 103.2%, the “Cell viability at 300 nM (%)” value [1] was 104.3% and the “Cell viability at 1000 nM (%)” value [1] was 70.6%. The Ki [2, 6] was 13 nM.

With `COC(=O)c1cc2c(cc1C)/C(=C(/Nc1ccc(C(=O)N(C)[C@H]3CN(C)C[C@@H]3O)cc1)c1ccccc1)C(=O)N2` [Example 48, (Z)-Methyl 3-(((4-(((3S,4S)-4-hydroxy-1-methylpyrrolidin-3-yl)(methyl)carbamoyl)phenyl)amino)(phenyl)methylene)-5-methyl-2-oxoindoline-6-carboxylate, 0.4 formate] the “Cell viability at 100 nM (%)” value [1] was 84.4%, the “Cell viability at 300 nM (%)” value [1] was 74.4% and the “Cell viability at 1000 nM (%)” value [1] was 14.1%. For the same compound, the Ki [2, 6] was 9.49 nM and the IC50 [3] was 2.29 nM.

In the case of `COC(=O)c1cc2c(cc1C)/C(=C(/Nc1ccc(C(=O)NCCN3CCCNC(=O)C3)cc1)c1ccccc1)C(=O)N2` [Example 56, (Z)-Methyl 5-methyl-2-oxo-3-(((4-((2-(3-oxo-1,4-diazepan-1-yl)ethyl)carbamoyl)phenyl)amino)(phenyl)methylene)indoline-6-carboxylate], the “Cell viability at 100 nM (%)” value [1] is reported as 100.0%, the “Cell viability at 300 nM (%)” value [1] is reported as 104.9% and the “Cell viability at 1000 nM (%)” value [1] is reported as 102.0%. For the same compound, the Ki [2, 6] was 12.6 nM and the IC50 [3] was 9.16 nM.

In the case of `COC(=O)c1cc2c(cc1C)/C(=C(/Nc1ccc(C(=O)NCCN3CCC(N(C)C)CC3)cc1)c1ccccc1)C(=O)N2` [Example 6, (Z)-Methyl 3-(((4-((2-(4-(dimethylamino)piperidin-1-yl)ethyl)carbamoyl)phenyl)amino) (phenyl)methylene)-5-methyl-2-oxoindoline-6-carboxylate, formate], the recovery at 5 hr, 10 μM [4] is reported as 56.5%, the Papp at 5 hr, 10 μM [4] is reported as 0.012 ×10⁻⁶ cm/s and the “Cell viability at 100 nM (%)” value [1] is reported as 102.3%. For the same compound, the “Cell viability at 300 nM (%)” value [1] was 98.9%, the “Cell viability at 1000 nM (%)” value [1] was 91.2% and the “Lung conc i.t./i.v. Ratio at time 0.1 h” value [5] was 9.8. For the same compound, the “Lung conc i.t./i.v. Ratio at time 1.5 h” value [5] was 8.0, the “Lung conc i.t./i.v. Ratio at time 6 h” value [5] was 8.3 and the “Lung conc i.t./i.v. Ratio at time 24 h” value [5] was 7.7. The “BAL % administered dose at time 0.1 h” value [5, 7] was 14%, the “lung/plasma conc ratio at time 0.1 h” value [5, 7] was 472 and the concentration at 0.1 h [5, 7] was 9826 nM. For the same compound, the “BAL % administered dose at time 1.5 h” value [5, 7] was 0.9%, the “lung/plasma conc ratio at time 1.5 h” value [5, 7] was >4452 and the concentration at 1.5 h [5, 7] was 7568 nM. The “BAL % administered dose at time 6 h” value [5, 7] was 1.1%, the “lung/plasma conc ratio at time 6 h” value [5, 7] was >4597 and the concentration at 6 h [5, 7] was 7815 nM. The “BAL % administered dose at time 24 h” value [5, 7] was 0.9%, the “lung/plasma conc ratio at time 24 h” value [5, 7] was >3787 and the concentration at 24 h [5, 7] was 6438 nM. For the same compound, the “BAL % administered dose at time 0.1 h” value [5, 8] was “BQL”, the “lung/plasma ratio at time 0.1 h” value [5, 8] was 77 and the concentration at 0.1 h [5, 8] was 1002 nM. For the same compound, the “BAL % administered dose at time 1.5 h” value [5, 8] was “BQL”, the “lung/plasma ratio at time 1.5 h” value [5, 8] was >558 and the concentration at 1.5 h [5, 8] was 949 nM. For the same compound, the “BAL % administered dose at time 6 h” value [5, 8] was “BQL”, the “lung/plasma ratio at time 6 h” value [5, 8] was >552 and the concentration at 6 h [5, 8] was 939 nM. The “BAL % administered dose at time 24 h” value [5, 8] was “BQL”, the “lung/plasma ratio at time 24 h” value [5, 8] was >492 and the concentration at 24 h [5, 8] was 837 nM. The IC50 [3] was 13.2 nM.
